Data reported in PubChem BioAssay AID492984 (Sanford-Burnham Center for Chemical Genomics, 2010).
The source made the active and inactive calls.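 The calls were made as follows: active = IC50 below 20 µM in the dose response test; inactive = the rest.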

Target: Type-1 angiotensin II receptor (Homo sapiens) (UniProt P30556)
Test: AGTR1 antagonism selectivity check – cell-based, CHO-K1 PathHunter, luminescence, set 3, selectivity assay for APJ antagonist project, SAR follow-up (AID 492984)
Conditions: CHO-K1 AGTR1 PathHunter beta-arrestin

Chain of Type-1 angiotensin II receptor (Homo sapiens) (P30556 whole entry, looked up): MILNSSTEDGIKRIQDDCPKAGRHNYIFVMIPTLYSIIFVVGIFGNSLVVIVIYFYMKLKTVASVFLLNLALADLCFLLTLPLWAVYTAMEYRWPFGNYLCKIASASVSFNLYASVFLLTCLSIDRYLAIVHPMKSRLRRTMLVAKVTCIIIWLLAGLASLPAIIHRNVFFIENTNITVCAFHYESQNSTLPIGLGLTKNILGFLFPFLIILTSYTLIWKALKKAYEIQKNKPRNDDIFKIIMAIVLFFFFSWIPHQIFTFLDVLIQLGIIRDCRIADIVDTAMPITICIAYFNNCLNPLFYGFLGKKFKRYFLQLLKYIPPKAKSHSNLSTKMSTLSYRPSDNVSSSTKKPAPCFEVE

Structure (SMILES)	IC50
Cc1ccnc(SCc2cc(=O)c(OC(=O)c3cccc(C#N)c3)co2)n1	> 79 µM (inactive)
O=C(Oc1coc(CCl)cc1=O)c1ccc(Cl)c([N+](=O)[O-])c1	> 79 µM (inactive)
Cc1ccnc(SCc2cc(=O)c(NC(=O)c3ccccc3)co2)n1	> 79 µM (inactive)
O=c1cc(CSc2ccc(F)cc2)occ1O	> 79 µM (inactive)

More lines, now with the values ahead:

IC50	Structure (SMILES)
> 79 µM (inactive)	Cc1cc(C)nc(SCc2cc(=O)c(OS(=O)(=O)c3ccc([N+](=O)[O-])cc3)co2)n1
> 79 µM (inactive)	O=C(Oc1coc(CSc2ncccn2)cc1=O)c1ccc([N+](=O)[O-])cc1
> 79 µM (inactive)	Cc1cc(C)nc(SCc2cc(=O)c(OS(=O)(=O)c3ccccc3)co2)n1
